7 compounds from BindingDB's records for doi:10.3109/14756366.2012.763163 (Atatürk University, 2014) can be followed below.

Where a name gives a salt, the structure may show the parent alone.

The target in one assay is Carbonic anhydrase 2 (Homo sapiens, UniProt P00918). Nature of the assay: Esterase Activity Assay. To be noted: pH 7.4; 25 °C. As for the experimental part:
(§1) CA activity was assayed by following the change in absorbance at 348 nm of 4-nitrophenylacetate (NPA) to 4-nitrophenylate ion over a period of 3 min at 25 °C using a spectrophotometer (Shimadzu, UVmini-1240 UV-VIS spectrophotometer) according to the method described by Verpoorte et al.37 The enzymatic reaction contained 1.4mL 0.05M Tris-SO4 buffer (pH 7.4), 1mL 3mM 4-NPA, 0.5mL H2O and 0.1mL enzyme solution (total volume, 3.0 mL). A reference measurement was obtained bypreparing the mixture without the enzyme solution. All measurements were recorded in triplicate.

For a further assay, the target named is Carbonic anhydrase 1 (Homo sapiens, UniProt P00915). Description: Esterase Activity Assay. To be noted: pH 7.4; 25 °C. As for the experimental part: as §1
Sequence of Carbonic anhydrase 1 (P00915 whole entry): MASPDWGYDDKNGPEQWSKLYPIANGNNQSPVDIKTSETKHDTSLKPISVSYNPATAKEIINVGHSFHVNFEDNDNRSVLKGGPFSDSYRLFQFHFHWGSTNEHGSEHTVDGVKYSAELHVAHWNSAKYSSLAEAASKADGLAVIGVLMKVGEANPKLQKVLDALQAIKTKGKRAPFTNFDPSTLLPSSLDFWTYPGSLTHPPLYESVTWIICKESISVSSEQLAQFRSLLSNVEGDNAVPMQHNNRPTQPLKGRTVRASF

Usually Ki stands for a dissociation constant, usually derived from enzyme kinetics or from competition with a known ligand. Read a low Ki as a stronger hold on the target. For `COc1ccc(C(N)c2cccc(OC)c2OC)cc1OC` (centres undefined) [(2,3-Dimethoxyphenyl)(3,4-dimethoxyphenyl)methanamine hydrochloride (25)], the Ki at Carbonic anhydrase 2 stood at 73.3 µM; on Carbonic anhydrase 1, 66.9 µM.
As for `COc1ccc(C(N)c2ccc(OC)c(OC)c2)c(OC)c1` (centres undefined) [(2,4-Dimethoxyphenyl)(3,4-dimethoxyphenyl)methanamine hydrochloride (23)], the Ki turned out to be 34.3 µM at Carbonic anhydrase 2 and 36 µM at Carbonic anhydrase 1.
Taken in the same sequence, the figures for `COc1ccc(C(N)c2cc(OC)c(OC)cc2C)cc1OC` (centres undefined) [(4,5-Dimethoxy-2-methylphenyl)(3,4-dimethoxyphenyl)methanamine hydrochloride (24)] were 47.6 µM and 39.5 µM.
With `COc1ccc(C(NS(C)(=O)=O)c2cccc(OC)c2OC)cc1OC` (centres undefined) [N-((2,3-dimethoxyphenyl)(3,4-dimethoxyphenyl)methyl)methanesulfonamide (28)], the Ki on Carbonic anhydrase 2 turned out to be 9.23 µM; on Carbonic anhydrase 1 it was 3.68 µM.
With `COc1ccc(C(NS(C)(=O)=O)c2cc(OC)c(OC)cc2C)cc1OC` (centres undefined) [N-((4,5-dimethoxy-2-methylphenyl)(3,4-dimethoxyphenyl)methyl)methane sulfonamide (27)], the Ki was 18.9 µM at Carbonic anhydrase 2 and 48.6 µM on Carbonic anhydrase 1.
With `COc1ccc(C(NS(C)(=O)=O)c2ccc(OC)c(OC)c2)cc1OC` [N-(bis(3,4-dimethoxyphenyl)methyl)methanesulfonamide (26)], the Ki on Carbonic anhydrase 2 was determined as 18.1 µM; at Carbonic anhydrase 1, 25.6 µM.
Taken in the same sequence, the figures for `COc1ccc(C(N)c2ccc(OC)c(OC)c2)cc1OC` [bis(3,4-dimethoxyphenyl)methanamine hydrochloride (22)] were 15.6 µM and 13.7 µM.
